Reference: patent US5773569A (Affymax Technologies N.V., priority 1995, dated 1998)

Experiments:
[1] = tested on: human peripheral blood mononuclear cells; experiment: Colony assay on a human peripheral blood specimen; assay type: cell-based
Protocol: (§1) G. Colony Assay: Murine Bone Marrow and Human Peripheml Blood Colony Assay
(§2) A ten milliliter sample of peripheral blood was obtained from a healthy individual in a standard sterile heparin vacutainer tube. Murine bone marrow was obtained from the femurs of approximately 10 mice per experiment. All reagents were obtained from Stem Cell Technologies Inc. (Vancouver, Canada).
(§3) a. Experimental Protocol: Briefly, a nucleated cell count was performed to establish the number and concentration of nucleated cells in the original sample. In the case of peripheral blood, the sample is subjected to centrifugation through a Ficoll-Hypaque (1.077 g per ml) gradient at 400 g for 30 minutes at room temperature. Mononuclear cells at the interface of the Ficoll-Hypaque solution are carefully removed and diluted to a total volume of about 10 ml. The cells obtained from murine bone marrow or human peripheral blood were collected by centrifugation and the supernatant was decanted. The pelleted cells were resuspended in fresh medium and subjected to collection as described above. The washed cells were diluted in Iscove's medium/2% fetal bovine serum to the following concentration for plating:
Normal blood: 4×10^5 light density cells
(§4) Cells were added to methyl cellulose per directions of the manufacturer. […] Equivalent cell numbers were plated in "Complete" methylcellulose medium to assess maximal colony formation. A control plate was run with each assay minus EPO and peptide to determine background colony formation. Colonies were scored after both 10 days and 18 days of incubation.

murine bone marrow cells = experiment: Colony assay, murine bone marrow; assay type: cell-based; details: EPO
Protocol: as §1, §2, §3
Normal marrow: 1×10^5 light density cells
as §4

[2] = tested on: polycythemic exhypoxic mice (59Fe incorporation); experiment: Polycythemic exhypoxic mouse bioassay; assay type: in vivo; details: subcutaneous
Protocol: J. Polycythemic Exhypoxic Mouse Bioassay
Female BDF1 mice (18-20 gms) are subjected to a conditioning cycle (in hypobaric chambers) of 18 hrs. at 0.40±0.02 atm. and 6 hrs. at ambient pressure for a period of 14 days.
Mice are maintained at ambient pressure for 72 hrs prior to administration of r-HuEPO or test samples. Test samples or r-HuEPO standard are diluted for injection into conditioned mice. The vehicle consists of: PBS containing 0.1% BSA (w/v). For each dilution, 0.5 ml is administered subcutaneously into each of 10 mice. ^59 Fe is administered 48 hrs. later. Blood samples are taken 48 hrs. following administration of ^59 Fe. Hematocrits and radioactivity measurements are determined for each sample. Dose range and results (two different assays) are set forth in Table 22 and FIGS. 17A-17C, infra.

FDCP-1/muER cells = experiment: Peptide-induced initiation of cell cycle measured by DNA content; assay type: cell-based, murine; details: 10 U/ml; ten hours postinduction; medium control 15%
Protocol: F. Cellular response kinetics: Peptide-Induced Initiation of Cell Cycle Measured By DNA Content
1. Experimental Protocol: FDCP-1/muER cells were grown to stationery phase ≈3.0×10^6 cells/ml. […] Three million cells were collected at the following time points: 0, 6, 8, 10, and 12 hr. (see, FIG. 15). Cells were washed twice in cold PBS and fixed by resuspending the cell pellet in 100 μl of cold PBS followed by 900 μl of cold 70% ethanol. Cells were stained with 50 μg/ml of propidium iodine and fluorescence was measured on FACS Scan Flow cytometer. The percentage of cells in each phase was measured using the SOBR model of CelIFIT software, by Becton Dickinson.

[3] = scored 2/23/94, EPO (METHOCULT)

Substance: EPO: Erythropoietin, glycoprotein hormone with 165 amino acids; recombinant standard
- CFU-E ([1]; scored 2/23/94, 3 U/ml): 7
- MBFU-E ([1]; scored 2/23/94, 3 U/ml): 7
- CFU-E [1, 3]: 11
- MBFU-E [1, 3]: 25
- CFU-E ([1]; scored 3/4/94, 3 U/ml): 4
- CFU-GM ([1]; scored 3/4/94, 3 U/ml): 3
- MBFU-E ([1]; scored 3/4/94, 3 U/ml): 7
- PBFU-E ([1]; scored 3/4/94, 3 U/ml): 7
- CFU-E ([1]; scored 3/4/94, EPO (METHOCULT)): 1
- CFU-GM ([1]; scored 3/4/94, EPO (METHOCULT)): 9
- MBFU-E ([1]; scored 3/4/94, EPO (METHOCULT)): 11
- PBFU-E ([1]; scored 3/4/94, EPO (METHOCULT)): 13
- BFU-E colony-forming cell numbers (murine bone marrow cells; Table 14 (1/28/94), 2/10/94): 5
- CFU-E colony-forming cell numbers (murine bone marrow cells; Table 14 (1/28/94), 2/10/94): 23
- CFU-GM colony-forming cell numbers (murine bone marrow cells; Table 14 (1/28/94), 2/10/94): 3
- BFU-E colony-forming cell numbers (murine bone marrow cells; Table 14 (1/28/94), 2/21/94): 30
- CFU-E colony-forming cell numbers (murine bone marrow cells; Table 14 (1/28/94), 2/21/94): 0
- CFU-GM colony-forming cell numbers (murine bone marrow cells; Table 14 (1/28/94), 2/21/94): 3
- BFU-E colony-forming cell numbers (murine bone marrow cells; Table 15 (2/21/94), 3/1/94): 3
- CFU-E colony-forming cell numbers (murine bone marrow cells; Table 15 (2/21/94), 3/1/94): 3
- CFU-GM colony-forming cell numbers (murine bone marrow cells; Table 15 (2/21/94), 3/1/94): > 10
- CFU-E colony-forming cell numbers (murine bone marrow cells; Table 15 (2/21/94), 3/14/94): 0
- CFU-GM colony-forming cell numbers (murine bone marrow cells; Table 15 (2/21/94), 3/14/94): 26
- MBFU-E colony-forming cell numbers (murine bone marrow cells; Table 15 (2/21/94), 3/14/94): 0
- PBFU-E colony-forming cell numbers (murine bone marrow cells; Table 15 (2/21/94), 3/14/94): 10
- LOG MEAN ([2]; dose 0.025 U): 1.65
- LOG MEAN ([2]; dose 0.050 U): 2.74
- LOG MEAN ([2]; dose 0.100 U): 3.28
- cells in S phase (FDCP-1/muER cells): approximately 45%
